Reference: patent US8658604B2, “Template-fixed beta-hairpin peptidomimetics with protease inhibitory activity” (Polyphor Ltd, priority 2005, dated 2014)
Where two headings read alike, the source gives them in different places. Where a SMILES comes first, the peptide text is derived from it. Bridges are numbered along the chain shown (N, C = ends). [ ]: non-standard residue; d: D form. Nle = CCCC[C@H](N)C(=O)O; Abu = CC[C@H](N)C(=O)O

What was measured:
[1] = target: T1, Elastase from human neutrophils (Homo sapiens, UniProt P08246); experiment: Enzymatic assay, elastase
T1 sequence (P08246 30-267): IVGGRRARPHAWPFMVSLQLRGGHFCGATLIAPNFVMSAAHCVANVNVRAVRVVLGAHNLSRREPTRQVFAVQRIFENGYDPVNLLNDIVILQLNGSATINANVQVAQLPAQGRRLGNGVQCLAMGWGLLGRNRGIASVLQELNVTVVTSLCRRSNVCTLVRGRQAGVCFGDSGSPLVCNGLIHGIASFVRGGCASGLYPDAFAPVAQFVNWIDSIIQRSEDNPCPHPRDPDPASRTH

HELA cells (Acc57) = experiment: Cytotoxicity assay (MTT reduction), HELA cells; type: cell-based
Description: The cytotoxicity of the peptides to HELA cells (Acc57) and COS-7 cells (CRL-1651) was determined using the MTT reduction assay [see ref. 2 and 3, below]. Briefly the method was as follows: HELA cells and COS-7 cells were seeded at 7.0×10^3 and, respectively, 4.5×10^3 cells per well and grown in 96-well microtiter plates for 24 hours at 37° C. at 5% CO2. At this point, time zero (Tz) was determined by MTT reduction (see below). The supernatant of the remaining wells was discarded, and fresh medium and the peptides in serial dilutions of 12.5, 25 and 50 μM were pipetted into the wells. Each peptide concentration was assayed in triplicate. Incubation of the cells was continued for 48 hours at 37° C. at 5% CO2. Wells were then washed once with phosphate buffered saline (PBS) and subsequently 100 μl MTT reagent (0.5 mg/ml in medium RPMI1640 and, respectively, DMEM) were added to the wells. This was incubated at 37° C. for 2 hours and subsequently the medium was aspirated and 100 μl isopropanol were added to each well. The absorbance at 595 nm of the solubilized product was measured (OD595peptide). For each concentration averages were calculated from triplicates. The percentage of growth was calculated as follows: (OD595peptide-OD595Tz-OD595Empty well)/(OD595Tz-OD595Empty well)×100% and was plotted for each peptide concentration.
The LC 50 values (Lethal Concentration, defined as the concentration that kills 50% of the cells) were determined for each peptide by using the trend line function of EXCEL (Microsoft Office 2000) for the concentrations (50, 25, 12.5 and 0 μM), the corresponding growth percentages and the value −50, (=TREND(C50:C0,%50:%0,−50)).
The GI 50 (Growth Inhibition) concentrations were calculated for each peptide by using a trend line function for the concentrations (50, 25, 12.5 and 0 μg/ml), the corresponding percentages and the value 50, (=TREND (C50:C0,%50:%0,50).

[2] = system: Tryptase, from human lung; experiment: Enzymatic assay, tryptase; conditions: at 100 μM
[3] = target: Chymotrypsin, from human pancreas (Homo sapiens, UniProt P17538); experiment: Enzymatic assay, chymotrypsin
Sequence of Chymotrypsin, from human pancreas (P17538 19-263): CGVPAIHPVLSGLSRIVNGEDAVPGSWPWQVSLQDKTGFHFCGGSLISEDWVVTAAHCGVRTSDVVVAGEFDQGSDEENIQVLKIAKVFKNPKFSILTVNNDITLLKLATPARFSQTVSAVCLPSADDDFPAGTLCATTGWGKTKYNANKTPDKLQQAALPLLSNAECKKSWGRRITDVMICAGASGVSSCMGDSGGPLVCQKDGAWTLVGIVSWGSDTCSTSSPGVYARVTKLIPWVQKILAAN

Molecule	IC50 ([1]; Elastase IC50) [µM]	Cytotoxicity LC50/GI50 Hela cells (HELA cells (Acc57); Hela cells) [µM]	further results
CCCC[C@@H]1NC(=O)[C@@H]2CCCN2C(=O)[C@H]2CCCN2C(=O)[C@H](CCCNC(=N)N)NC(=O)[C@@H]2CSSC[C@H](NC1=O)C(=O)N[C@@H]([C@@H](C)O)C(=O)N[C@@H](C)C(=O)N[C@@H](CO)C(=O)N[C@@H]([C@@H](C)CC)C(=O)N1CCC[C@H]1C(=O)N1CCC[C@H]1C(=O)N[C@@H](CCC(N)=O)C(=O)N2 [Ex. 92] (HELM PEPTIDE1{[Nle].C.T.A.S.I.P.P.Q.C.R.[dP].P}$PEPTIDE1,PEPTIDE1,2:R3-10:R3|PEPTIDE1,PEPTIDE1,1:R1-13:R2$$$V2.0)	0.043	93	–
CCCC[C@@H]1NC(=O)[C@H](CO)NC(=O)[C@H]2CCCN2C(=O)[C@H](Cc2ccc(O)cc2)NC(=O)[C@@H]2CSSC[C@H](NC1=O)C(=O)N[C@@H]([C@@H](C)O)C(=O)N[C@@H](C)C(=O)N[C@@H](CO)C(=O)N[C@@H]([C@@H](C)CC)C(=O)N1CCC[C@H]1C(=O)N1CCC[C@H]1C(=O)N[C@@H](CCC(N)=O)C(=O)N2 [Ex. 124] (HELM PEPTIDE1{A.S.I.P.P.Q.C.Y.[dP].S.[Nle].C.T}$PEPTIDE1,PEPTIDE1,7:R3-12:R3|PEPTIDE1,PEPTIDE1,1:R1-13:R2$$$V2.0)	0.04	40	–
CCCC[C@@H]1NC(=O)[C@@H]2CCCN2C(=O)[C@H]2CCCN2C(=O)[C@H](Cc2ccc(O)cc2)NC(=O)[C@@H]2CSSC[C@H](NC1=O)C(=O)N[C@@H]([C@@H](C)O)C(=O)N[C@@H](C)C(=O)N[C@@H](CO)C(=O)N[C@@H]([C@@H](C)CC)C(=O)N1CCC[C@H]1C(=O)N1CCC[C@H]1C(=O)N[C@@H](Cc1ccccc1)C(=O)N2 [Ex. 89] (HELM PEPTIDE1{[Nle].C.T.A.S.I.P.P.F.C.Y.[dP].P}$PEPTIDE1,PEPTIDE1,2:R3-10:R3|PEPTIDE1,PEPTIDE1,1:R1-13:R2$$$V2.0)	0.043	51	–
CC[C@H](C)[C@@H]1NC(=O)[C@@H]2CCCN2C(=O)[C@@H]2CCCN2C(=O)[C@H](CC(=O)O)NC(=O)[C@H]([C@H](C)O)NC(=O)[C@H](CCCCN)NC(=O)[C@H]([C@@H](C)O)NC(=O)[C@@H]2CSSC[C@H](NC1=O)C(=O)N[C@@H](CO)C(=O)N1CCC[C@@H]1C(=O)N1CCC[C@H]1C(=O)N[C@@H](Cc1ccccc1)C(=O)N2 [Ex. 24] (HELM PEPTIDE1{F.C.T.K.[C[C@H](O)[C@H](N[*:1])C(=O)[*:2]].D.P.P.I.C.S.[dP].P}$PEPTIDE1,PEPTIDE1,2:R3-10:R3|PEPTIDE1,PEPTIDE1,1:R1-13:R2$$$V2.0)	–	99	Tryptase at 100 μM % [2]: 0%
CCCC[C@@H]1NC(=O)[C@@H]2CCCN2C(=O)[C@@H](CCCNC(=N)N)NC(=O)[C@H](Cc2ccc(O)cc2)NC(=O)[C@@H]2CSSC[C@H](NC1=O)C(=O)N[C@@H]([C@@H](C)O)C(=O)N[C@@H](C)C(=O)N[C@@H](CO)C(=O)N[C@@H]([C@@H](C)CC)C(=O)N1CCC[C@H]1C(=O)N1CCC[C@H]1C(=O)N[C@@H](CCC(N)=O)C(=O)N2 [Ex. 117] (HELM PEPTIDE1{A.S.I.P.P.Q.C.Y.[dR].P.[Nle].C.T}$PEPTIDE1,PEPTIDE1,7:R3-12:R3|PEPTIDE1,PEPTIDE1,1:R1-13:R2$$$V2.0)	0.033	29	–
CCCC[C@@H]1NC(=O)[C@@H]2CCCN2C(=O)[C@@H](CC(=O)O)NC(=O)[C@H](Cc2ccc(O)cc2)NC(=O)[C@@H]2CSSC[C@H](NC1=O)C(=O)N[C@@H]([C@@H](C)O)C(=O)N[C@@H](C)C(=O)N[C@@H](CO)C(=O)N[C@@H]([C@@H](C)CC)C(=O)N1CCC[C@H]1C(=O)N1CCC[C@H]1C(=O)N[C@@H](CCC(N)=O)C(=O)N2 [Ex. 115] (HELM PEPTIDE1{[Nle].C.T.A.S.I.P.P.Q.C.Y.[dD].P}$PEPTIDE1,PEPTIDE1,2:R3-10:R3|PEPTIDE1,PEPTIDE1,1:R1-13:R2$$$V2.0)	0.038	51	IC50 [3]: 27.8 µM
CCCC[C@@H]1NC(=O)[C@@H]2CCCN2C(=O)[C@H]2CCCCN2C(=O)[C@H](Cc2ccc(O)cc2)NC(=O)[C@@H]2CSSC[C@H](NC1=O)C(=O)N[C@@H]([C@@H](C)O)C(=O)N[C@@H](C)C(=O)N[C@@H](CO)C(=O)N[C@@H]([C@@H](C)CC)C(=O)N1CCC[C@H]1C(=O)N1CCC[C@H]1C(=O)N[C@@H](CCC(N)=O)C(=O)N2 [Ex. 120] (HELM PEPTIDE1{A.S.I.P.P.Q.C.Y.[O=C([C@H]1CCCCN1[*:1])[*:2]].P.[Nle].C.T}$PEPTIDE1,PEPTIDE1,7:R3-12:R3|PEPTIDE1,PEPTIDE1,1:R1-13:R2$$$V2.0)	0.029	38	–
CC[C@H](C)[C@@H]1NC(=O)[C@@H]2CCCN2C(=O)[C@H]2CCCN2C(=O)[C@H](Cc2ccc(O)cc2)NC(=O)[C@@H]2CSSC[C@H](NC1=O)C(=O)N[C@@H]([C@@H](C)O)C(=O)N[C@@H](C)C(=O)N[C@@H](CO)C(=O)N[C@@H](CC(C)C)C(=O)N1CCC[C@H]1C(=O)N1CCC[C@H]1C(=O)N[C@@H](Cc1ccc(O)cc1)C(=O)N2 [Ex. 114] (HELM PEPTIDE1{I.C.T.A.S.L.P.P.Y.C.Y.[dP].P}$PEPTIDE1,PEPTIDE1,2:R3-10:R3|PEPTIDE1,PEPTIDE1,1:R1-13:R2$$$V2.0)	0.047	34	–
CCCC[C@@H]1NC(=O)[C@@H]2CCCN2C(=O)[C@H]2CCCN2C(=O)[C@H](Cc2ccc(O)cc2)NC(=O)[C@@H]2CSSC[C@H](NC1=O)C(=O)N[C@@H]([C@@H](C)O)C(=O)N[C@@H](C)C(=O)N[C@@H](CO)C(=O)N[C@@H](CCC(C)C)C(=O)N1CCC[C@H]1C(=O)N1CCC[C@H]1C(=O)N[C@@H](CCC(N)=O)C(=O)N2 [Ex. 83] (HELM PEPTIDE1{[Nle].C.T.A.S.[CC(C)CC[C@H](N[*:1])C(=O)[*:2]].P.P.Q.C.Y.[dP].P}$PEPTIDE1,PEPTIDE1,2:R3-10:R3|PEPTIDE1,PEPTIDE1,1:R1-13:R2$$$V2.0)	0.043	12	IC50 [3]: 100 µM
CCCC[C@@H]1NC(=O)[C@@H]2CCCN2C(=O)[C@H]2CCCN2C(=O)[C@H](CO)NC(=O)[C@@H]2CSSC[C@H](NC1=O)C(=O)N[C@@H]([C@@H](C)O)C(=O)N[C@@H](C)C(=O)N[C@@H](CO)C(=O)N[C@@H]([C@@H](C)CC)C(=O)N1CCC[C@H]1C(=O)N1CCC[C@H]1C(=O)N[C@@H](CCC(N)=O)C(=O)N2 [Ex. 93] (HELM PEPTIDE1{[Nle].C.T.A.S.I.P.P.Q.C.S.[dP].P}$PEPTIDE1,PEPTIDE1,2:R3-10:R3|PEPTIDE1,PEPTIDE1,1:R1-13:R2$$$V2.0)	0.041	100	Tryptase at 100 μM % [2]: 5.6%
Ex. 87: β-hairpin peptidomimetic of Table 1, template DPro-Pro (cyclo([Nle]C[Abu]ASIPPQCY); disulfide 2-10; also: DPro-Pro template, linkage not given here)	–	–	IC50 ([3]; read-out: Chymotrypsin IC50): 107 µM; IC50 ([1]; read-out: Elastase IC50): 0.037 µM; Cytotoxicity LC50/GI50 Hela cells (HELA cells (Acc57)): 65 µM
CC[C@H](C)[C@@H]1NC(=O)[C@H](CO)NC(=O)[C@H](C)NC(=O)[C@H]([C@@H](C)O)NC(=O)[C@@H]2CSSC[C@H](NC(=O)[C@H](CCC(N)=O)NC(=O)[C@@H]3CCCN3C(=O)[C@@H]3CCCN3C1=O)C(=O)N[C@@H](Cc1ccc(O)cc1)C(=O)N1CCC[C@@H]1C(=O)N1CCC[C@H]1C(=O)N[C@@H](CCC(C)C)C(=O)N2 [Ex. 100] (HELM PEPTIDE1{[CC(C)CC[C@H](N[*:1])C(=O)[*:2]].C.T.A.S.I.P.P.Q.C.Y.[dP].P}$PEPTIDE1,PEPTIDE1,2:R3-10:R3|PEPTIDE1,PEPTIDE1,1:R1-13:R2$$$V2.0)	–	83	–
CCCC[C@@H]1NC(=O)[C@@H]2CCCN2C(=O)[C@H]2CCCN2C(=O)[C@H](Cc2ccc(O)cc2)NC(=O)[C@@H]2CSSC[C@H](NC1=O)C(=O)N[C@@H]([C@@H](C)O)C(=O)N[C@@H](C)C(=O)N[C@@H](CO)C(=O)N[C@@H](CC1CCCC1)C(=O)N1CCC[C@H]1C(=O)N1CCC[C@H]1C(=O)N[C@@H](CCC(N)=O)C(=O)N2 [Ex. 112] (HELM PEPTIDE1{[Nle].C.T.A.S.[O=C([C@H](CC1CCCC1)N[*:1])[*:2]].P.P.Q.C.Y.[dP].P}$PEPTIDE1,PEPTIDE1,2:R3-10:R3|PEPTIDE1,PEPTIDE1,1:R1-13:R2$$$V2.0)	–	33	–
